# Results as given in PubChem BioAssay (NCI).
#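 Five compound concentrations were applied to cells in 96-well plates for 48 hours; endpoints were derived by simple linear interpolation of the resulting dose-response curve. TGI: concentration producing complete growth inhibition.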
# Experiments:
# Assay in all cases: NCI-60 cell line screen, 48 h
# SR leukemia = tested on: SR leukemia
# SF-295 CNS = tested on: SF-295 CNS
# MOLT-4 leukemia = tested on: MOLT-4 leukemia
# SN12C renal = tested on: SN12C renal
# SK-OV-3 ovarian = tested on: SK-OV-3 ovarian
# MALME-3M melanoma = tested on: MALME-3M melanoma
# UACC-257 melanoma = tested on: UACC-257 melanoma
# SNB-19 CNS = tested on: SNB-19 CNS
# OVCAR-4 ovarian = tested on: OVCAR-4 ovarian
# HOP-92 NSCLC = tested on: HOP-92 NSCLC
# HS 578T breast = tested on: HS 578T breast
# UACC-62 melanoma = tested on: UACC-62 melanoma
# MDA-MB-435 = tested on: MDA-MB-435
# HCT-15 colon = tested on: HCT-15 colon
# LOX IMVI melanoma = tested on: LOX IMVI melanoma
# OVCAR-8 ovarian = tested on: OVCAR-8 ovarian
# U251 CNS = tested on: U251 CNS
# A498 renal = tested on: A498 renal
# 786-0 renal = tested on: 786-0 renal
# DU-145 prostate = tested on: DU-145 prostate
# UO-31 renal = tested on: UO-31 renal
# HCT-116 colon = tested on: HCT-116 colon
# MDA-N = tested on: MDA-N
# KM12 colon = tested on: KM12 colon
# EKVX NSCLC = tested on: EKVX NSCLC
# IGROV1 ovarian = tested on: IGROV1 ovarian
# NCI-H23 lung = tested on: NCI-H23 lung
# SK-MEL-28 melanoma = tested on: SK-MEL-28 melanoma
# SF-268 CNS = tested on: SF-268 CNS
# OVCAR-5 ovarian = tested on: OVCAR-5 ovarian
# ACHN renal = tested on: ACHN renal
# SK-MEL-5 melanoma = tested on: SK-MEL-5 melanoma
# MCF7 breast = tested on: MCF7 breast
# NCI-H460 lung = tested on: NCI-H460 lung
# SW-620 colon = tested on: SW-620 colon
# HT29 colon = tested on: HT29 colon
# NCI-H226 lung = tested on: NCI-H226 lung
# CAKI-1 renal = tested on: CAKI-1 renal
# HOP-62 NSCLC = tested on: HOP-62 NSCLC
# A549 NSCLC = tested on: A549 NSCLC
# RPMI-8226 leukemia = tested on: RPMI-8226 leukemia
# PC-3 prostate = tested on: PC-3 prostate
# MDA-MB-231 breast = tested on: MDA-MB-231 breast
# COLO 205 colon = tested on: COLO 205 colon
# NCI/ADR-RES ovarian = tested on: NCI/ADR-RES ovarian
# SK-MEL-2 melanoma = tested on: SK-MEL-2 melanoma
# BT-549 breast = tested on: BT-549 breast
# HCC-2998 colon = tested on: HCC-2998 colon
# OVCAR-3 ovarian = tested on: OVCAR-3 ovarian
# SF-539 CNS = tested on: SF-539 CNS
# M14 melanoma = tested on: M14 melanoma
# SNB-75 CNS = tested on: SNB-75 CNS
# T-47D breast = tested on: T-47D breast
# NCI-H522 lung = tested on: NCI-H522 lung
# TK-10 renal = tested on: TK-10 renal
# HL-60(TB) leukemia = tested on: HL-60(TB) leukemia
# CCRF-CEM leukemia = tested on: CCRF-CEM leukemia
# K-562 leukemia = tested on: K-562 leukemia
# RXF 393 renal = tested on: RXF 393 renal
compound,measurement,setting,value
O=Cc1c(-c2ccccc2)[nH]c2ccccc2c1=O,TGI,SR leukemia,37.4 µM
same,TGI,SF-295 CNS,> 100 µM
same,TGI,MOLT-4 leukemia,> 100 µM
same,TGI,SN12C renal,> 100 µM
same,TGI,SK-OV-3 ovarian,> 100 µM
same,TGI,MALME-3M melanoma,> 100 µM
same,TGI,UACC-257 melanoma,> 100 µM
same,TGI,SNB-19 CNS,> 100 µM
same,TGI,OVCAR-4 ovarian,> 100 µM
same,TGI,HOP-92 NSCLC,> 100 µM
same,TGI,HS 578T breast,98.9 µM
same,TGI,UACC-62 melanoma,> 100 µM
same,TGI,MDA-MB-435,88.1 µM
same,TGI,HCT-15 colon,> 100 µM
same,TGI,LOX IMVI melanoma,> 100 µM
same,TGI,OVCAR-8 ovarian,> 100 µM
same,TGI,U251 CNS,> 100 µM
same,TGI,A498 renal,> 100 µM
same,TGI,786-0 renal,> 100 µM
same,TGI,DU-145 prostate,> 100 µM
same,TGI,UO-31 renal,> 100 µM
same,TGI,HCT-116 colon,> 100 µM
same,TGI,MDA-N,34.2 µM
same,TGI,KM12 colon,> 100 µM
same,TGI,EKVX NSCLC,> 100 µM
same,TGI,IGROV1 ovarian,> 100 µM
same,TGI,NCI-H23 lung,> 100 µM
same,TGI,SK-MEL-28 melanoma,> 100 µM
same,TGI,SF-268 CNS,> 100 µM
same,TGI,OVCAR-5 ovarian,> 100 µM
same,TGI,ACHN renal,> 100 µM
same,TGI,SK-MEL-5 melanoma,53.9 µM
same,TGI,MCF7 breast,> 100 µM
same,TGI,NCI-H460 lung,> 100 µM
same,TGI,SW-620 colon,> 100 µM
same,TGI,HT29 colon,> 100 µM
same,TGI,NCI-H226 lung,> 100 µM
same,TGI,CAKI-1 renal,> 100 µM
same,TGI,HOP-62 NSCLC,> 100 µM
same,TGI,A549 NSCLC,> 100 µM
same,TGI,RPMI-8226 leukemia,85.6 µM
same,TGI,PC-3 prostate,> 100 µM
same,TGI,MDA-MB-231 breast,> 100 µM
same,TGI,COLO 205 colon,82.3 µM
same,TGI,NCI/ADR-RES ovarian,> 100 µM
same,TGI,SK-MEL-2 melanoma,> 100 µM
same,TGI,BT-549 breast,> 100 µM
same,TGI,HCC-2998 colon,> 100 µM
same,TGI,OVCAR-3 ovarian,> 100 µM
same,TGI,SF-539 CNS,> 100 µM
same,TGI,M14 melanoma,> 100 µM
same,TGI,SNB-75 CNS,86.4 µM
same,TGI,T-47D breast,> 100 µM
same,TGI,NCI-H522 lung,> 100 µM
same,TGI,TK-10 renal,> 100 µM
NC(N)=NS(=O)(=O)c1ccc(NNC(=O)c2cccc3c(=O)c4ccccc4[nH]c23)cc1,TGI,SR leukemia,> 100 µM
same,TGI,SF-295 CNS,> 100 µM
same,TGI,MOLT-4 leukemia,80.9 µM
same,TGI,SN12C renal,> 100 µM
same,TGI,SK-OV-3 ovarian,89.2 µM
same,TGI,MALME-3M melanoma,35.4 µM
same,TGI,UACC-257 melanoma,74.8 µM
same,TGI,SNB-19 CNS,> 100 µM
same,TGI,OVCAR-4 ovarian,83.5 µM
same,TGI,HOP-92 NSCLC,79.6 µM
same,TGI,HS 578T breast,> 100 µM
same,TGI,UACC-62 melanoma,88.9 µM
same,TGI,MDA-MB-435,57.5 µM
same,TGI,HCT-15 colon,50.5 µM
same,TGI,HL-60(TB) leukemia,62.1 µM
same,TGI,LOX IMVI melanoma,47.7 µM
same,TGI,CCRF-CEM leukemia,> 100 µM
same,TGI,OVCAR-8 ovarian,59.4 µM
same,TGI,U251 CNS,> 100 µM
same,TGI,K-562 leukemia,53 µM
same,TGI,786-0 renal,> 100 µM
same,TGI,DU-145 prostate,> 100 µM
same,TGI,UO-31 renal,50.4 µM
same,TGI,HCT-116 colon,59.5 µM
same,TGI,MDA-N,60.9 µM
same,TGI,KM12 colon,57 µM
same,TGI,EKVX NSCLC,62.2 µM
same,TGI,IGROV1 ovarian,> 100 µM
same,TGI,NCI-H23 lung,87 µM
same,TGI,SK-MEL-28 melanoma,65.9 µM
same,TGI,SF-268 CNS,> 100 µM
same,TGI,OVCAR-5 ovarian,> 100 µM
same,TGI,ACHN renal,61.4 µM
same,TGI,SK-MEL-5 melanoma,36.1 µM
same,TGI,MCF7 breast,34.3 µM
same,TGI,NCI-H460 lung,49.1 µM
same,TGI,SW-620 colon,> 100 µM
same,TGI,HT29 colon,41.8 µM
same,TGI,NCI-H226 lung,67.2 µM
same,TGI,CAKI-1 renal,94.6 µM
same,TGI,HOP-62 NSCLC,73.5 µM
same,TGI,RXF 393 renal,77.2 µM
same,TGI,A549 NSCLC,> 100 µM
same,TGI,RPMI-8226 leukemia,> 100 µM
same,TGI,PC-3 prostate,89.7 µM
same,TGI,MDA-MB-231 breast,95.2 µM
same,TGI,COLO 205 colon,54.7 µM
same,TGI,NCI/ADR-RES ovarian,> 100 µM
same,TGI,SK-MEL-2 melanoma,63.7 µM
same,TGI,BT-549 breast,73.6 µM
same,TGI,HCC-2998 colon,38.3 µM
same,TGI,OVCAR-3 ovarian,57.5 µM
same,TGI,SF-539 CNS,58.7 µM
same,TGI,M14 melanoma,34.9 µM
same,TGI,SNB-75 CNS,> 100 µM
same,TGI,T-47D breast,59.2 µM
same,TGI,NCI-H522 lung,46.1 µM
same,TGI,TK-10 renal,94 µM
